From ChEMBL document CHEMBL5705888, “Substrate specificity and inhibitors of LRRK2, a protein kinase mutated in Parkinson's disease” (Biochem J, 2009)

Legend:
[1] = molecular target: Dual specificity mitogen-activated protein kinase kinase 1 (Homo sapiens) (UniProt Q02750); test: Inhibition of MKK1 (unknown origin) at 10 uM incubated for 30 mins in presence of [gamma-33P]ATP by multidrop micro reagent based assay relative to control
[2] = molecular target: T1, Mitogen-activated protein kinase kinase kinase kinase 2 (Homo sapiens) (UniProt Q12851); test: Inhibition of GCK (unknown origin) at 10 uM incubated for 30 mins in presence of [gamma-33P]ATP by multidrop micro reagent based assay relative to control; values are per cent of control
T1 sequence (whole entry): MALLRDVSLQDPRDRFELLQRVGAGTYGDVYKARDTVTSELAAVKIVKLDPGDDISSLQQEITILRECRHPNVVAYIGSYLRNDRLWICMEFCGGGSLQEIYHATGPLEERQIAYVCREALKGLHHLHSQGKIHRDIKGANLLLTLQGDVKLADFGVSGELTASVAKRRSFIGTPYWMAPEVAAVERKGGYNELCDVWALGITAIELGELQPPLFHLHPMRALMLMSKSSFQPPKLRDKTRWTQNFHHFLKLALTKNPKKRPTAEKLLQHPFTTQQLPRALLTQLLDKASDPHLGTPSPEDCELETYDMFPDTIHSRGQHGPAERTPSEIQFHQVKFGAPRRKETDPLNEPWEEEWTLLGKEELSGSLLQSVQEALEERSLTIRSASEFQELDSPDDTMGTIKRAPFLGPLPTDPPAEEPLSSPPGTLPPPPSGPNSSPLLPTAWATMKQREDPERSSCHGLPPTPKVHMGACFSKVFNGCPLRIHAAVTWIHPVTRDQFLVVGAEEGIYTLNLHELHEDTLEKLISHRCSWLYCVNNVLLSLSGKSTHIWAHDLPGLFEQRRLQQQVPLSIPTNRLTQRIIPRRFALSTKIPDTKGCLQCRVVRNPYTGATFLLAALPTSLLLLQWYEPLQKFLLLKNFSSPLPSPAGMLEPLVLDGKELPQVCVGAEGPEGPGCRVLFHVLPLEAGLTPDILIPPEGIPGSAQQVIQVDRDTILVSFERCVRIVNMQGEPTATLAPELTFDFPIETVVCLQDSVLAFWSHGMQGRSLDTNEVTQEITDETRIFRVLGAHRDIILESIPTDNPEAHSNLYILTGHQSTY

[3] = molecular target: T2, Serine/threonine-protein kinase TBK1 (Homo sapiens) (UniProt Q9UHD2); test: Inhibition of TBK1 (unknown origin) at 10 uM incubated for 30 mins in presence of [gamma-33P]ATP by multidrop micro reagent based assay relative to control; values are per cent of control
T2 sequence (whole entry): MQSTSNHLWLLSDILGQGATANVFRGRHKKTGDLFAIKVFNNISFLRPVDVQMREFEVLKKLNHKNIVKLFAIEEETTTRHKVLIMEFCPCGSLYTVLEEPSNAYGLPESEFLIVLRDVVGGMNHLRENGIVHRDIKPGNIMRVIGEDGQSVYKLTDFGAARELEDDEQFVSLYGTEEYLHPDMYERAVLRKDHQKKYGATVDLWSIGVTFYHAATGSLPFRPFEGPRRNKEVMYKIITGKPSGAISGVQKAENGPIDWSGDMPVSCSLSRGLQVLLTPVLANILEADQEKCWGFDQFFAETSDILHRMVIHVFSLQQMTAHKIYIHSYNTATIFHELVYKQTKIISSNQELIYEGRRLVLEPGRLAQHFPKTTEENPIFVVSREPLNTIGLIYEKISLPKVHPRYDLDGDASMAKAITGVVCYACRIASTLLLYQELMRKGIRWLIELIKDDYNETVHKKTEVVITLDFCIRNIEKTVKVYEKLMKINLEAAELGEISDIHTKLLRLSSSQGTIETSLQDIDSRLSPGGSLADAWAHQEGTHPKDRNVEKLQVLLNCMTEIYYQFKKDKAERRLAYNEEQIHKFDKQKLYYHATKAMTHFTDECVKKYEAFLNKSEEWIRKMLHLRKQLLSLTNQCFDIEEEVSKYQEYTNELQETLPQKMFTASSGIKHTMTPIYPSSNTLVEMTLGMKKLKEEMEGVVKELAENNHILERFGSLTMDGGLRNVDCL

[4] = molecular target: Calcium/calmodulin-dependent protein kinase type 1 (Homo sapiens) (UniProt Q14012); test: Inhibition of CaMK1 (unknown origin) at 10 uM incubated for 30 mins in presence of [gamma-33P]ATP by multidrop micro reagent based assay relative to control; values are per cent of control
[5] = molecular target: T3, Protein kinase C zeta type (Homo sapiens) (UniProt Q05513); test: Inhibition of PKCzeta (unknown origin) at 10 uM incubated for 30 mins in presence of [gamma-33P]ATP by multidrop micro reagent based assay relative to control; values are per cent of control
T3 sequence (whole entry): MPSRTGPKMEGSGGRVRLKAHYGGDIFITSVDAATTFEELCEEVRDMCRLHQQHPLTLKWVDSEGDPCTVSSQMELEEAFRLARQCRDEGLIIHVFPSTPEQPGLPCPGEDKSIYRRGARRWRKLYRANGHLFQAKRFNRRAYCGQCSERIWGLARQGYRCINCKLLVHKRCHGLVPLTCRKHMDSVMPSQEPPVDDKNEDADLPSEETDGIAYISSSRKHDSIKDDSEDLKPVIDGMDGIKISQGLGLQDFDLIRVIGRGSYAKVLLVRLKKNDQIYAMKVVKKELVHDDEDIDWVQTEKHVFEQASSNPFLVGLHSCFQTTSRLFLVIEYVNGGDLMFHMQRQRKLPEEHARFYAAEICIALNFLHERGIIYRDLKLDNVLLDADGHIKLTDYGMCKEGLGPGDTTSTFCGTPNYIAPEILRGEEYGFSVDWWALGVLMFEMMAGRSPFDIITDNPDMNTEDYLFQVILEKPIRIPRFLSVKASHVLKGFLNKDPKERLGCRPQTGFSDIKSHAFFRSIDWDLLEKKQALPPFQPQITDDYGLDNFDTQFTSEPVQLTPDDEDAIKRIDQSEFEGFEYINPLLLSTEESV

Sequence of Dual specificity mitogen-activated protein kinase kinase 1 (Homo sapiens) (Q02750 whole entry): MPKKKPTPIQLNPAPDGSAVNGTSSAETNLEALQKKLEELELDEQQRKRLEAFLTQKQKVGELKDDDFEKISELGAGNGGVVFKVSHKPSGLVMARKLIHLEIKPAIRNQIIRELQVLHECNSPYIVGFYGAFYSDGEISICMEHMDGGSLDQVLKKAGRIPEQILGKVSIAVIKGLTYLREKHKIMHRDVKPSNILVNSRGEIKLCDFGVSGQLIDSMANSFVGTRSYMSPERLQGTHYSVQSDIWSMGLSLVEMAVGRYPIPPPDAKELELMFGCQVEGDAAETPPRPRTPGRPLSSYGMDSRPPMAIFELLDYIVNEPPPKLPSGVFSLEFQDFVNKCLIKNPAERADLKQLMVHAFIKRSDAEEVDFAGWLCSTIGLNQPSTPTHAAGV
Sequence of Calcium/calmodulin-dependent protein kinase type 1 (Homo sapiens) (Q14012 whole entry, looked up): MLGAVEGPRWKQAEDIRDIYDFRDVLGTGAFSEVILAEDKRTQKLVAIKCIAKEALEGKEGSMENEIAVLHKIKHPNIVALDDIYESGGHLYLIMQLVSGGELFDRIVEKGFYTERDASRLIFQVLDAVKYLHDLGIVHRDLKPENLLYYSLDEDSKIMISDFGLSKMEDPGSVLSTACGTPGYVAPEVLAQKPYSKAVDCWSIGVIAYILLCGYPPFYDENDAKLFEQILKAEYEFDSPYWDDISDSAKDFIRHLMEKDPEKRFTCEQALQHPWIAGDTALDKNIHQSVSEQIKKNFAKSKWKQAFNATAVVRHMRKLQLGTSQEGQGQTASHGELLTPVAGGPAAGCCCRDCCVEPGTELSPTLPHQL

SMILES: C[C@@H](N)[C@H]1CC[C@H](C(=O)Nc2ccncc2)CC1
- inhibition [1]: 71%
- residual activity [2]: 89%
- residual activity [3]: 69%
- residual activity [4]: 85%
- residual activity [5]: 69%

SMILES: O=S(=O)(c1cccc2cnccc12)N1CCCNCC1 [FASUDIL]
- inhibition [1]: 41%
- residual activity [2]: 55%
- residual activity [3]: 110%
- residual activity [4]: 109%
- residual activity [5]: 66%
